# Patent US8518956B2, “1-(1-(2-ethoxyethyl)-3-ethyl-7-(4-methylpyridin-2-ylamino)-1H-pyrazolo[4,3-d]pyrimidin-5-yl) piperidine-4-carboxylic acid and salts thereof” (priority 2005, dated 2013)
# Biological target: T1, PDE5 enzyme (Homo sapiens, UniProt O76074)
# T1 construct: The PDE5 enzyme isolated from human platelets; from tissue; host or cells: human platelets
# Test: Method 1: Human Platelet PDE5 Enzyme Inhibition Scintillation Proximity Assay
# Type: biochemical
# Details: METHOD 1: PDE5 IC50, Table B, WO2004096810 examples
# Excerpt: Method 1: Human Platelet PDE5 Enzyme Inhibition Scintillation Proximity Assay
# An in vitro assay can be used to evaluate the inhibition of PDE5 enzyme activity by a test compound.
# The PDE5 enzyme for use in the assay can be obtained from human platelets by appropriate modification of the method of Thompson, W J et al.; Biochemistry 18(23), 5228-5237, 1979, as described by Ballard S A et al.; J. Urology 159(6), 2164-2171, 1998. The PDE5 enzyme isolated from human platelets can be used to catalyze the hydrolysis of [^3H]cGMP (Amersham Biosciences) to 5′ nucleotide [^3H]GMP. The [^3H]GMP binds to yttrium silicate SPA beads (Amersham Biosciences) and is detected by scintillation counting. More specifically, the effect of the test compound at different concentrations can be evaluated in the assay by contacting the compound with a fixed amount of PDE5 enzyme in the presence of substrate (cGMP or cAMP in a 3:1 ratio unlabelled to [^3H]-labeled). Scintillation counting can be used as described above to determine relative PDE5 enzyme activity. The inhibition of PDE5 enzyme activity is then calculated relative to total PDE5 enzyme activity of uninhibited controls.
# PDE5 IC50 Assay: 96-well microtiter plate format
# • Buffer A: 20 mM Tris-HCl, 5 mM MgCl2, pH 7.4 • Buffer B: 2 mg/ml BSA in Buffer A (enzyme buffer) • cGMP substrate: Final concentration of 500 nM in assay The amount of ^3H-labeled substrate added depends upon the specific activity of [^3H]cGMP, and the cGMP substrate is diluted with a 10 mM stock of cold cGMP in Buffer A for a final substrate concentration of 500 nM in the assay. • PDE enzyme: Prepared in Buffer B. The dilution factor is determined by enzyme activity. • SPA beads: 20 mg/ml suspension prepared in dH2O.
# Stocks of standard and test compounds are prepared at 5 mM in 100% DMSO. The compound is serially diluted in a dilution plate using a 10-point ½ log dilution format. 2 μl of the compound dilution is added in duplicate to the wells of the assay plate. 2 μl of 100% DMSO are added to designated control wells. 25 μl of Buffer A are added to all wells. 25 μl of Buffer B are added to the negative control wells. 25 μl of enzyme are added to the remaining wells. 50 μl of substrate are added to each well. Plates are sealed and incubated for 60 minutes on a plate shaker at 30 C. 50 plof SPA beads are added to stop the reaction. The plates are again sealed and shaken for 15 minutes to allow the beads to bind the GMP product. The beads are allowed to settle for 30 minutes and then read on a NXT TopCount scintillation counter. Data are analyzed with a curve fitting application for plate-based screening. Percent inhibition in this assay is calculated as follows: Inhibition (%)=[(mean maximum−compound value/(mean maximum−mean minimum)]×100.
# The IC50 value is determined from sigmoid dose-response curves of enzyme activity versus compound concentration.
row,IC50 [nM],SMILES
1,5.46,CCOCCn1nc(C)c2nc(N(C)CCOC)nc(Nc3ccc(=O)n(C)c3)c21 [WO2004096810 Example 202]
2,0.63,CCOCCn1nc(C)c2nc(N(C)CC)nc(Nc3ccc(=O)n(C)c3)c21 [WO2004096810 Example 203]
3,24.1,CCOCCn1nc(C)c2nc(N3CC(NC)C3)nc(Nc3cc(C)ccn3)c21 [WO2004096810 Example 204]
4,6.24,CCOCCn1nc(C)c2nc(N3CC(N(C)C)C3)nc(Nc3cc(C)ccn3)c21 [WO2004096810 Example 205]
5,6.09,CCOCCn1nc(C)c2nc(N3C[C@@H]4C[C@H]3CN4C)nc(Nc3cc(C)ccn3)c21 [WO2004096810 Example 206]
6,1.55,CCOCCn1nc(C)c2nc(N(C)CCOC)nc(Nc3cc(C)ccn3)c21 [WO2004096810 Example 207]
7,0.71,CCOCCn1nc(C)c2nc(N(C)CCO)nc(Nc3cc(C)ccn3)c21 [WO2004096810 Example 208]
8,82.7,CCOCCn1nc(C)c2nc(N3C[C@@H]4C[C@H]3CN4C)nc(Nc3ccncn3)c21 [WO2004096810 Example 210]
9,1.57,CCOCCn1nc(COC)c2nc(N3CCN[C@H](C)C3)nc(Nc3cccc(C)n3)c21 [WO2004096810 Example 211]
10,0.13,CCOCCn1nc(COC)c2nc(N(C)CC)nc(Nc3cc(C)ccn3)c21 [WO2004096810 Example 212]
11,0.42,CCOCCn1nc(COC)c2nc(N3CCC[C@H]3CO)nc(Nc3cc(C)ccn3)c21 [WO2004096810 Example 213]
12,5.3,CCOCCn1nc(COC)c2nc(N3CC(N(C)C)C3)nc(Nc3cc(C)ccn3)c21 [WO2004096810 Example 215]
13,60.9,CCOCCn1nc(C)c2nc(N(C)CCN(C)C)nc(Nc3ccncn3)c21 [WO2004096810 Example 216]
14,2.55,CCOCCn1nc(C)c2nc(N(C)CC)nc(Nc3ccncn3)c21 [WO2004096810 Example 217]
15,11.5,CCOCCn1nc(C)c2nc(N(C)CC)nc(Nc3ccnc(C)n3)c21 [WO2004096810 Example 218]
16,41,CCOCCn1nc(C)c2nc(N(C)CCOC)nc(Nc3ccnc(C)n3)c21 [WO2004096810 Example 219]
17,3.6,CCOCCn1nc(C)c2nc(N3CCN[C@H](C)C3)nc(Nc3ccnc(C)n3)c21 [WO2004096810 Example 220]
18,35.4,CCOCCn1nc(C)c2nc(N3CCN[C@H](C)C3)nc(Nc3nccc(C)n3)c21 [WO2004096810 Example 221]

row,IC50 [nM],SMILES
1,10.1,CCOCCn1nc(C)c2nc(N3CCN[C@H](C)C3)nc(Nc3cc(C(F)(F)F)ccn3)c21 [WO2004096810 Example 222]
2,1.33,CCOCCn1nc(COC)c2nc(N(C)CC)nc(Nc3ccncn3)c21 [WO2004096810 Example 225]
3,0.83,CCOCCn1nc(COC)c2nc(N(C)CCOC)nc(Nc3cc(C)ccn3)c21 [WO2004096810 Example 226]
4,0.35,CCOCCn1nc(COC)c2nc(N(C)CCO)nc(Nc3cc(C)ccn3)c21 [WO2004096810 Example 227]
5,3.09,CCOCCn1nc(CO)c2nc(N(C)CC)nc(Nc3ccncn3)c21 [WO2004096810 Example 228]
6,1.61,CCOCCn1nc(CO)c2nc(N3C[C@@H]4C[C@H]3CN4)nc(Nc3cc(C)ccn3)c21 [WO2004096810 Example 229]
7,10.3,Cc1ccnc(Nc2nc(N3C[C@@H]4C[C@H]3CN4)nc3c(C)nn(CCOCC(F)(F)F)c23)c1 [WO2004096810 Example 231]
8,3.85,CCOCCn1nc(C)c2nc(N3C[C@@H]4C[C@H]3CN4)nc(Nc3cnc(C)c(C)c3)c21 [WO2004096810 Example 233]
9,8.79,CCOCCn1nc(C)c2nc(N3C[C@@H]4C[C@H]3CN4)nc(Nc3cc(C)cc(C)n3)c21 [WO2004096810 Example 234]
10,> 100,CCOCCn1nc(C)c2nc(N3C[C@@H]4C[C@H]3CN4)nc(Nc3cccc(C)n3)c21 [WO2004096810 Example 235]
11,2.51,CCOCCn1nc(C)c2nc(N3C[C@@H]4C[C@H]3CN4)nc(Nc3cc(C)ccn3)c21 [WO2004096810 Example 236]
12,0.67,CCOCCn1nc(C)c2nc(N3CC4CCC3CN4)nc(Nc3cc(C)ccn3)c21 (stereo not shown) [WO2004096810 Example 237]
13,> 100,CCOCCn1nc(C)c2nc(N3C[C@@H]4C[C@H]3CN4)nc(Nc3ccc(C)cn3)c21 [WO2004096810 Example 240]
14,48.7,CCOCCn1nc(C)c2nc(N3C[C@@H]4C[C@H]3CN4)nc(Nc3ccncn3)c21 [WO2004096810 Example 241]
15,0.62,CCOCCn1nc(COC)c2nc(N3CC4CCC(C3)N4)nc(Nc3cc(C)ccn3)c21 [WO2004096810 Example 242]
16,2.54,CCOCCn1nc(C)c2nc(N3CC4C[C@@H]3CN4)nc(Nc3cc(C)ccn3)c21 [WO2004096810 Example 244]
17,16.2,CCc1nn(CCOC)c2c(Nc3cc(C)ccn3)nc(NC)nc12 [compound 1]

row,SMILES,IC50 [nM]
1,CCOCCn1nc(COC)c2nc(N(C)C3CCN(C)CC3)nc(Nc3cc(C)ccn3)c21 [WO2004096810 Example 214],0.37
2,Cc1ccnc(Nc2nc(N(C)[C@H]3CCN(C)C3)nc3c(C)nn(CCOCC(F)(F)F)c23)c1 [WO2004096810 Example 245],1.55
3,CCOCCn1nc(CC)c2nc(N(C)C3CCN(C)CC3)nc(Nc3ccncn3)c21 [compound 2],0.48

# Biological target: PDE6 enzyme
# Test: not given
# Details: read-out: METHOD 2: PDE6 IC50; Table F, WO2004096810 examples
# Excerpt: Method 2: Human Retina PDE6 Enzyme Inhibition Scintillation Proximity Assay (SPA)
# The inhibition of PDE6 enzyme activity by a test compound can be measured in accordance with the in vitro assay of Method 1, but instead using semi-purified PDE6 enzyme isolated from human, bovine or canine retina in place of PDE5 enzyme. […] [3H]GMP binds to yttrium silicate SPA beads and is detected by scintillation counting. • PDE6 Purification: PDE6 can be isolated and purified from the following: Soluble rod PDE6/Rod Outer Segment PDE6 from Bovine eyes (Charles River Ltd, France); Cone PDE6 from Canine eyes (LAS); or Soluble rod and Cone PDE6 from Human eyes (I.I.A.M.).
# While supporting the eye with the cornea uppermost, make a small incision through the conjunctiva below the level of the iris. The incision should be sufficient to allow the humor to escape through the cut. Using fine scissors, cut around the cornea to enable it to be lifted off as a flap. Using a small hook, engage the lens and gently pull it out of orbit, taking care not to pull out the retina at the same time. Allow the retina to drop down of its own accord to the base of the orbit.
# Lift the retina with care and locate the optic nerve. Cut through the optic nerve and transfer the retina to a small dish containing a few ml of homogenisation buffer. Gently float the retina out on the surface of the buffer and remove any obvious pigmented material from the iris. Place the retina in a second dish with clean buffer to remove last traces of pigment and then transfer to a 50 ml Corning Costar centrifuge tube (Sigma) and keep on ice. • PDE6 Isolation and Purification from Retina: Allow 2 mls of the homogenisation buffer per bovine retina and 1 ml per retina for dog and human. Homogenise using hand-held homogeniser 3×5 second bursts cooling on ice between each burst. Filter homogenate through two layers of surgical gauze. Spin at 100,000 g for 60 minutes at 4° C. […] Run through FPLC (Pharmacia FPLC LKB/FRAC-100, Pharmacia) or aliquot and store in liquid nitrogen as needed. Method 2A: Alternative Human Retina PDE6 Enzyme Inhibition Scintillation Proximity Assay (SPA)
row,SMILES,IC50 [nM]
1,Cc1ccnc(Nc2nc(N(C)[C@H]3CCN(C)C3)nc3c(C)nn(CCOCC(F)(F)F)c23)c1 [WO2004096810 Example 245],250

# Biological target: T2, PDE11 enzyme (Homo sapiens, UniProt Q9HCR9, DUP921-921)
# T2 construct: FLAG (N); made in house; host or cells: Sf9 insect cells (baculovirus, pFastBac)
# Test: Method 3: Human Recombinant PDE11 Enzyme Inhibition Scintillation Proximity Assay (SPA)
# Type: biochemical
# Details: Table F, WO2004096810 examples; read-out: METHOD 3: PDE11 IC50
# Experimental: Method 3: Human Recombinant PDE11 Enzyme Inhibition Scintillation Proximity Assay (SPA)
# PDE11 Expression and Purification:
# Incubate at 27° C. with 220 rpm shaking for 48 hours. Harvest the infected cells by pelleting at 2000 rpm for 10 minutes at 4° C. Store the infected cell pellet at −80° C. until ready for purification. Resuspend the thawed cell pellets to 1×10^7 cells/ml (=20 ml buffer consisting of 20 mM Hepes (pH7.2), 1 mM EDTA, 20 mM sucrose, 150 mM NaCl and protease inhibitor tablets). Mix thoroughly and allow to stand on ice for 10 minutes. Sonicate for 5×5 seconds, on ice. Spin the mixture at 12,000 rpm for 10 minutes at 4° C. in SS34. Store the insoluble pellet at −80° C., and proceed to the purification of the soluble material. • (b) Purification: Prepare the column (1.0 cm diameter, Kontes) by rinsing the empty column twice with TBS. Then mix beads (Anti-FLAG M2 Agarose, Sigma) with TBS and add to the column—allow the beads to settle. Wash the column with 3 column volumes of 0.1M glycine (pH3.5). […] Apply the extract to the column and allow the extract to enter by gravity flow. Reapply the flow-through. Wash the column with 15 column volumes of TBS. Elute the protein with 5×1 ml aliquots of FLAG peptide (Sigma) (i.e., 100 ug/ml in TBS). Elute the remaining protein with 1 ml 0.1M glycine, and immediately add 25 ul 1M Tris pH8 to neutralize. Method 3A: Alternative Human Recombinant PDE11 Enzyme Inhibition Scintillation Proximity Assay (SPA)
# T2 sequence (Q9HCR9 with tags, fused parts or gaps DUP921-921 limits assumed): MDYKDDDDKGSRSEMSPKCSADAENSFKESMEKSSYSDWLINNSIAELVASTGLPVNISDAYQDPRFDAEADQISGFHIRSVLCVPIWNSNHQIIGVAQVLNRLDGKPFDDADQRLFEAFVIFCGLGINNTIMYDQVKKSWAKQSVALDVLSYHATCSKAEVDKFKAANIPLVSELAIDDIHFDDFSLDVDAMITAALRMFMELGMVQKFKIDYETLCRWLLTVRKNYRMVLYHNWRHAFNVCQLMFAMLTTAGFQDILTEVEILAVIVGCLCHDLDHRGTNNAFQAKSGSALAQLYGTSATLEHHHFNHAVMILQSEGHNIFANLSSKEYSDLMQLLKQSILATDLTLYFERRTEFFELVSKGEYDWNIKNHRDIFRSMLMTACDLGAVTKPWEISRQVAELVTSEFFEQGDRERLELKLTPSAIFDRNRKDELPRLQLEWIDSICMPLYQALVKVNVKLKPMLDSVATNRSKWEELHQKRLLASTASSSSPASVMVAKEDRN
row,SMILES,IC50 [nM]
1,Cc1ccnc(Nc2nc(N(C)[C@H]3CCN(C)C3)nc3c(C)nn(CCOCC(F)(F)F)c23)c1 [WO2004096810 Example 245],390
